Laboratory results reported in article PMC8541628, “Development of Novel Quinoline-Based Sulfonamides as Selective Cancer-Associated Carbonic Anhydrase Isoform IX Inhibitors” (International Journal of Molecular Sciences, 2021).
Like-named read-outs stand apart in the source and are kept apart here.

Assays:
Bcl-2 [1] = test: Bcl-2 expression level (ELISA) in MCF-7 cells; type: cell-based, human; settings: for Bcl-2 / Bcl-2, folds of control: 24 h incubation; for suppression of the expression level of Bcl-2 protein: compared to the untreated control
Procedure: (§1) The levels of two members of Bcl-2 family proteins, the anti-apoptotic Bcl-2 protein, and the counteracting pro-apoptotic Bax protein, as well as the level of active caspase-3 (a key executioner protease) in MDA-MB-231 and MCF-7 cells have been assessed after incubation with QBS 11c and 13b for 24 h.
(§2) All adopted procedures for the conducted in vitro biological assays were performed as described earlier; CA (stopped-flow), cytotoxicity (MTT [37, 38]), and assessment of apoptotic markers assays, as well as induction of hypoxia with cobalt chloride, and were mentioned in the Supporting Materials. […]
(§3) monolay er. Cell monolay ers were treated in quadrates with vehicle (DMSO, 0.1% v/v), test samples or Adriamycin as positive control for an exposure time of 72 h. At the end of exposure, MTT solution in PBS (5 mg/ml) was then added to all well including no cell blank and left to incubate for 90 min. The formation of formazan crystals were visually confirmed using phase contract microscopy. DMSO (100 µl/well) was added to dissolve the formazan crystals with shaking for 10 min after which the absorbance was read at 590 nm against no cell blanks on a FLuo Star Optima microplate reader (BMG technologies, Germany). Cell proliferation was calculated comparing the OD values of the DMSO control wells and those of the samples represented as % proliferation to the control. Dose-response experiment was performed on samples producing > or =50% loss of cell proliferation using five serial 2-fold dilutions (50, 25, 12.5, 6.25 and 3.125 µM) of the sample. IC50 values (concentration of sample causing 50% loss of cell proliferation of the vehicle control) were calculated using non-linear regression curve fitting of the dose response plots on GraphPad Prism V.6.0 software.
(§4) 3. Assessment of Apo ptotic Markers Levels
(§5) The levels of the pro-apoptotic markers (Bax and active caspase-3) as well as the anti-apoptotic marker Bcl-2 were determined using ELISA kits; Human Bax ELISA Kit (EIA-4487) DRG® Instruments, Bcl-2 ELISA Kit (99–0042), Zymed® Laboratories, Invitrogen Immunodetection, and Human Caspase-3 (active) ELISA Kit (KHO1091) Invitrogen®, per the manufacturer’s instructions. Breast cancer MDA-MB-231 and MCF-7 cells were cultured as a monolayer in T-25 flasks and were seeded to attain 30% confluency prior to treatment. Cells were then treated separately with MBFS 11b at its IC50 concentration for 24 h. At the end of treatment, cells were collected via trypsinization and centrifuged at 10,000 rpm. The pellet was then rinsed with PBS and lysed in RIPA lysis buffer at 4 °C for 45 min, then centrifuged at 14,000 rpm for 20 min to remove the cellular debris. Lysates were then collected and stored at −80 °C for later protein determination using Pierce BCA Protein Assay Kit according to manufacturer’s recommendations.
(§6) The cell lysate was diluted 10 times, and 100 μL ([…]) was added to the wells of […] separate microtiter plates for the three ELISA kits th at were pre-coated with primary antibodies specific to Bax, Bcl-2, and caspase-3 proteins, respectively. A secondary biotin-linked antibody specific to the protein captured by the primary antibody was further added to bind the […]
(§7) captured protein, forming a “sandwich” of specific antibodies around the desired protein in the cell lysate. The streptavidin-HRP complex was then used to bind the biotin-linked secondary antibody through its streptavidin portion. The HRP domain reacted with the added TMB substrate to form a colored product that measured at 450 nm by a plate reader ChroMate-4300 after the reaction was terminated via the addition of stop solution. […]
The ligand 3D structures were prepared by Maestro and their ionization states was checked with Epik at pH 7.4±0.5 then they were subjected to energy minimization using OPLS3 force field in Macromodel with a maximum number of 2500 conjugate gradient iteration and a convergence of 0.05 kcal mol−1 A−1. Glide with default […]

hCA IX = hCA IX (Homo sapiens, UniProt Q16790); test: stopped flow carbon dioxide hydrase assay, hCA IX; settings: for Selectivity ratio I/IX: hCA IX over hCA I; for Selectivity ratio II/IX: hCA IX over hCA II
Bcl-2 [2] = test: Bcl-2 expression level (ELISA) in MDA-MB-231 cells; type: cell-based, human; settings: for Bcl-2 / Bcl-2, folds of control: 24 h incubation; for decrease in the expression level of Bcl-2 protein: in comparison to the untreated control
Procedure: as §1, §2, §4, §5, §6, §7
The ligand 3D structures were prepared by Maestro and their ionization states was checked with Epik at pH 7.4±0.5 then they were subjected to energy minimization using OPLS3 force field in Macromodel with a maximum number of 2500 conjugate gradient iteration and a convergence of 0.05 kcal mol−1 A−1. Glide with default parameters was u sed to generate th e docking g rid setting the center of the co-crystallized lig and s as grid center. Docking was performed using the standard precision mode (SP) implemented in Glide and the top 5 poses for each ligand were returned. Prime MMGBSA was used for the refinement of the best pose for each ligand, using VSGB solvation model setting the receptor flexible within 3 A around the ligand.

hCA XII = hCA XII (Homo sapiens, UniProt O43570); test: stopped flow carbon dioxide hydrase assay, hCA XII; settings: for Selectivity ratio I/XII: hCA XII over hCA I; for Selectivity ratio II/XII: hCA XII over hCA II
Chain of hCA XII (O43570 25-354): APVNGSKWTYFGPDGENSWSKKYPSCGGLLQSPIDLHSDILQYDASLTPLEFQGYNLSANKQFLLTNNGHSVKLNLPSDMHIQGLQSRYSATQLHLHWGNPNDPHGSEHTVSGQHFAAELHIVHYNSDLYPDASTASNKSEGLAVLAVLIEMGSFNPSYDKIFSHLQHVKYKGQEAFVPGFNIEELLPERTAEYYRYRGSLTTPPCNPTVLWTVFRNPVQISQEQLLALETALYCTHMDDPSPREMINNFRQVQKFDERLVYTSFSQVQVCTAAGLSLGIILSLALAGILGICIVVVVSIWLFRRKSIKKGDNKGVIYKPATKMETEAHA

Bax = Bax expression level (ELISA) in MCF-7 cells; type: cell-based, human; settings: 24 h incubation
Procedure: as §1, §2, §3, §4
The levels of the pro-apoptotic markers (Bax and active caspase-3) as well as the anti-apoptotic marker Bcl-2 were determined using ELISA kits; Human Bax ELISA Kit (EIA-4487) DRG® Instruments, Bcl-2 ELISA Kit (99–0042), Zymed® Laboratories, Invitrogen Immunodetection, and Human Caspase-3 (active) ELISA Kit (KHO1091) Invitrogen®, per the manufacturer’s instructions. Breast cancer MDA-MB-231 and MCF-7 cells were cultured as a monolayer in T-25 flasks and were seeded to attain 30% confluency prior to treatment. Cells were then treated separately with MBFS 11b at its IC50 concentration for 24 h. […]
captured protein, forming a “sandwich” of specific antibodies around the desired protein in the cell lysate. […] The HRP domain reacted with the added TMB substrate to form a colored product that measured at 450 nm by a plate reader ChroMate-4300 after the reaction was terminated via the addition of stop solution. […]

Row | Ki (hCA IX) [nM] | Selectivity ratio I/IX (hCA IX) | Selectivity ratio II/IX (hCA IX) | melting point [°C] | Ki (hCA XII) [nM] | Selectivity ratio I/XII (hCA XII) | Selectivity ratio II/XII (hCA XII) | Ki (hCA IX; read-out: KI CA IX, stopped flow technique, mean from 3 different assays) [nM] | SMILES | Bcl-2 (Bcl-2 [1]) | Bcl-2, folds of control (Bcl-2 [1]) | suppression of the expression level of Bcl-2 protein (Bcl-2 [1]) [%] | Bcl-2 (Bcl-2 [2]) | Bcl-2, folds of control (Bcl-2 [2]) | decrease in the expression level of Bcl-2 protein (Bcl-2 [2]) [%] | BAX (Bax) | BAX, folds of control (Bax)
1 | 5.5 | 16.7 | 10.6 | 250 to 252 | 13.2 | 7.0 | 4.4 | – | COc1ccc2nccc(Nc3ccc(S(N)(=O)=O)cc3)c2c1 [13b, 4-((6-methoxyquinolin-4-yl)amino)benzenesulfonamide] | 5.72 ± 0.13 Pg/mg of Total Protein | 0.62 folds of control | 38 | 5.304 ± 0.13 Pg/mg of Total Protein | 0.37 folds of control | 63 | 443.9 ± 10.2 Pg/mg of Total Protein | 4.64 folds of control
2 | – | 52.7 | 18.4 | – | 55.3 | 8.0 | 2.8 | 8.4 | NS(=O)(=O)c1cccc(Nc2ccnc3ccc(Cl)cc23)c1 [11c, 3-((6-chloroquinolin-4-yl)amino)benzenesulfonamide] | 7.29 ± 0.15 Pg/mg of Total Protein | 0.79 folds of control | 21 | 6.45 ± 0.17 Pg/mg of Total Protein | 0.45 folds of control | 55 | 512.9 ± 11.7 Pg/mg of Total Protein | 5.36 folds of control
